Measured values as given in US20260207618A1, “PYRIMIDINE CARBOXAMIDE COMPOUNDS” (Acrivon Therapeutics, Inc., priority 2022, published 2026).

What was measured:
[1] = tested on: Cdk1 phosphorylated on tyrosine 15; assay: High-content imaging of pCdk1 Y15 by immunofluorescence in ACHN cells; type: cell-based; conditions: Homo sapiens, high-content imaging (IF), 4 h, 7 to 5000 nM, read-out: CDK1 Tyr15 Phosphorylation EC50 (IC50)
Procedure, shortened: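 ACHN cells were treated with compounds at 7–5000 nM for 4 h, then fixed, permeabilised and immunostained for pCDK1 Y15, with DAPI as nuclear counterstain. Automated imaging gave the percentage of cells with nuclear pCDK1 Y15 positivity relative to DMSO control. EC50 values came from dose-response curves.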

[2] = biological target: T1, recombinant human Wee1A kinase (Homo sapiens, UniProt P30291); assay: LanthaScreen Europium (Eu) Kinase Binding Assay, Wee1A kinase (TR-FRET tracer displacement); conditions: 30 nM tracer 178, 5 nM Wee1A kinase, 60 minutes at room temperature
T1 construct: full length Wee1A kinase was expressed by baculovirus in insect cells; purchased Invitrogen PV3817; host or cells: insect cells (baculovirus)

ACHN cells = assay: Cell Titer Glo viability assay in ACHN cells; type: cell-based; conditions: Homo sapiens, 144 h, 0.17 to 10,000 nM
Description: (§1) ACHN renal cell carcinoma cell line (ATCC) was cultured in Minimum Essential Medium Eagle supplemented with 10% fetal calf serum (Sigma), 1% Penicillin-Streptomycin and 10 mM HEPES buffer (HyClone). Cell cultures were kept in a humidified incubator at 37° C. and 5% CO2. Cells were routinely tested for Mycoplasma contamination.
ACHN cells were seeded at a density of 400 cells per well in tissue culture treated 384 well plates (Corning Costar). After overnight incubation, cells were treated with drugs at concentrations ranging from 0.17 to 10,000 nM. Viability compared to untreated control was assessed at 144 h using Cell Titer Glo assay 2.0 (Promega).

[3] = tested on: Cdk1 phosphorylated on tyrosine 15; assay: pCDK1 Y15 AlphaLISA target engagement assay in ACHN cells; type: cell-based; conditions: Homo sapiens, treated for 4 h, 7 to 5000 nM, read-out: TE Weel (ALISA): AlphaLISA CDK1 Tyr15 Phosphorylation EC50
Description: as §1
For target engagement assessment, quantification of Cdk1 phosphorylated on tyrosine 15 was detected using pCDK1 Y^15 AlphaLISA assay (Perkin Elmer). ACHN cells were seeded into tissue culture treated 96-well plates (VWR) to a density of 20,000 cells per well. 24 h post seeding cells were treated for 4 h with compounds at concentrations ranging from 7 to 5000 nM. Cells were washed with PBS and lysed in 50 μl alphaLISA lysis buffer before freezing at −80° C. 10 μl of the lysate was transferred to 384 well plates and incubated with alphaLISA donor and acceptor beads according to the manufacturer's instructions. Dose response curves and EC50 values were calculated and visualized using GraphPad Prism version 9.

T1 sequence (P30291 whole entry): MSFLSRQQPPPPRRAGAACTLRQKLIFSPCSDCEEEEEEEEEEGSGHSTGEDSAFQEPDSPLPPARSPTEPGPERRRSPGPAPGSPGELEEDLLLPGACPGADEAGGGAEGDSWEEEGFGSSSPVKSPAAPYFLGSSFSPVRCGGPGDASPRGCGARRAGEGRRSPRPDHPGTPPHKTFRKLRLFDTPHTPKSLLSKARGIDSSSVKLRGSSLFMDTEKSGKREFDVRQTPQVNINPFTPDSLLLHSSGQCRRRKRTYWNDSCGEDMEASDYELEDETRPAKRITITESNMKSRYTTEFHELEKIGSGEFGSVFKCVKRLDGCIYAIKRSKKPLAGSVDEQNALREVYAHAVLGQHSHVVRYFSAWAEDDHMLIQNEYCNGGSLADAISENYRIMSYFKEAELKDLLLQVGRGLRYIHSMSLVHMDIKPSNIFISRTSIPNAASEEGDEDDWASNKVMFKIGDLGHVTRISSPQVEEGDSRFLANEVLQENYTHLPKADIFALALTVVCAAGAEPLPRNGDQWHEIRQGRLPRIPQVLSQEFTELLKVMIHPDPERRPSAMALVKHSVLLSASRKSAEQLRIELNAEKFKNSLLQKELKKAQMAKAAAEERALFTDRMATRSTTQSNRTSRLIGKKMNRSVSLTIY

| SMILES | EC50 [1] | IC50 [2] | EC50 (ACHN cells) | EC50 [3] |
| --- | --- | --- | --- | --- |
| COc1nc(Nc2ccc3c(c2)CN(C)CC3(C)C)ncc1C(=O)Nc1c(Cl)cccc1Cl [Compound 135, N-(2,6-dichlorophenyl)-4-methoxy-2-((2,4,4-trimethyl-1,2,3,4-tetrahydroisoquinolin-7-yl)amino)pyrimidine-5-carboxamide] | ≤ 100 nM | ≤ 10 nM | 250 to 1000 nM | – |
| COc1nc(Nc2ccc(OCCCN(C)C)c(C)c2)ncc1C(=O)Nc1c(Cl)ccc(O)c1C [Compound 158, N-(6-chloro-3-hydroxy-2-methylphenyl)-2-((4-(3-(dimethylamino)propoxy)-3-methylphenyl)amino)-4-methoxypyrimidine-5-carboxamide] | 100 to 500 nM | ≤ 10 nM | 250 to 1000 nM | – |
| COc1nc(Nc2cnn(C3CCN(C)CC3)c2)ncc1C(=O)Nc1c(Cl)cccc1Cl [Compound 163] | 100 to 500 nM | ≤ 10 nM | 250 to 1000 nM | > 2500 nM |
| COc1nc(Nc2ccc3c(cnn3C3CCN(C)C3)c2)ncc1C(=O)Nc1c(Cl)cccc1Cl (centres unmarked) [Compound 173] | – | 10 to 100 nM | – | > 2500 nM |
| COc1nc(Nc2ccc3c(cnn3CCN(C)C)c2)ncc1C(=O)Nc1c(Cl)cccc1Cl [Compound 174] | – | ≤ 10 nM | – | > 2500 nM |
| COc1nc(Nc2ccc3c(cnn3C)c2)ncc1C(=O)Nc1c(Cl)cccc1Cl [Compound 176] | – | 10 to 100 nM | – | > 2500 nM |
| COc1nc(Nc2ccc(O[C@H]3CCNC3)c(C)c2)ncc1C(=O)Nc1c(Cl)cccc1Cl [Compound 177] | – | ≤ 10 nM | – | > 2500 nM |
| COc1nc(Nc2ccc(O[C@@H]3CCNC3)c(C)c2)ncc1C(=O)Nc1c(Cl)cccc1Cl [Compound 178] | ≤ 100 nM | ≤ 10 nM | 250 to 1000 nM | 500 to 1000 nM |
| COc1nc(Nc2ccc(C3(C#N)CCN(C)CC3)c(C)c2)ncc1C(=O)Nc1c(Cl)cccc1Cl [Compound 181] | – | ≤ 10 nM | – | ≤ 500 nM |
| CCOc1nc(Nc2cnn(CCCN(C)C)c2)ncc1C(=O)Nc1c(Cl)cccc1Br [Compound 200, N-(2-bromo-6-chlorophenyl)-2-{1-[3-(dimethylamino)propyl]-4-pyrazolylamino}-4-ethoxy-5-pyrimidinecarboxamide] | 100 to 500 nM | – | 250 to 1000 nM | – |
| COc1nc(Nc2ccc(N3CCCNCC3)c(C)c2)ncc1C(=O)Nc1c(Cl)cccc1Br [Compound 205] | 100 to 500 nM | ≤ 10 nM | ≤ 250 nM | – |
| COc1nc(Nc2ccc(O[C@@H]3CCNC3)c(C)c2)ncc1C(=O)Nc1c(Cl)cccc1Br [Compound 210] | 100 to 500 nM | – | 250 to 1000 nM | – |
| COc1nc(Nc2cnn(C3CCN(C)CC3)c2)ncc1C(=O)Nc1c(Br)cccc1Br [Compound 212, N-2,6-dibromophenyl-4-methoxy-2-[1-(1-methyl-4-piperidyl)-4-pyrazolylamino]-5-pyrimidinecarboxamide] | 100 to 500 nM | ≤ 10 nM | ≤ 250 nM | – |
| COc1nc(Nc2cnn(C)c2)ncc1C(=O)Nc1c(C)ccc(O)c1C [Compound 224, N-(3-hydroxy-2,6-xylyl)-4-methoxy-2-(1-methyl-4-pyrazolylamino)-5-pyrimidinecarboxamide] | > 1000 nM | ≤ 10 nM | – | – |

The remaining lines, values ahead:

| EC50 [1] | IC50 [2] | EC50 (ACHN cells) | EC50 [3] | SMILES |
| --- | --- | --- | --- | --- |
| 100 to 500 nM | ≤ 10 nM | 250 to 1000 nM | – | COc1nc(Nc2ccc([C@H]3CCNC3)c(C)c2)ncc1C(=O)Nc1c(Cl)cccc1Br (single isomer, unassigned) [Compound 194] |
| 100 to 500 nM | ≤ 10 nM | 250 to 1000 nM | – | COc1nc(Nc2ccc([C@@H]3CCNC3)c(C)c2)ncc1C(=O)Nc1c(Cl)cccc1Br (single isomer, unassigned) [Compound 195] |
| 100 to 500 nM | ≤ 10 nM | ≤ 250 nM | – | COc1nc(Nc2ccc([C@@H]3CCCN(C)C3)c(C)c2)ncc1C(=O)Nc1c(Cl)cccc1Br (single isomer, unassigned) [Compound 197] |
| ≤ 100 nM | ≤ 10 nM | 250 to 1000 nM | – | COc1nc(Nc2ccc(C3CCN(C)CC3)c(C)c2)ncc1C(=O)Nc1c(Cl)cccc1Cl [Compound 100, N-(2,6-dichlorophenyl)-4-methoxy-2-((3-methyl-4-(1-methylpiperidin-4-yl)phenyl)amino)pyrimidine-5-carboxamide] |
| ≤ 100 nM | ≤ 10 nM | ≤ 250 nM | – | COc1nc(Nc2ccc(C3CCN(C)CC3)c(C)c2)ncc1C(=O)Nc1c(Cl)cccc1Br [Compound 110, N-(2-bromo-6-chlorophenyl)-4-methoxy-2-((3-methyl-4-(1-methylpiperidin-4-yl)phenyl)amino)pyrimidine-5-carboxamide] |
| ≤ 100 nM | ≤ 10 nM | 250 to 1000 nM | – | COc1nc(Nc2ccc3c(c2)CN(C)CC3)ncc1C(=O)Nc1c(Cl)cccc1Cl [Compound 116, N-(2,6-dichlorophenyl)-4-methoxy-2-((2-methyl-1,2,3,4-tetrahydroisoquinolin-7-yl)amino)pyrimidine-5-carboxamide] |
| 100 to 500 nM | ≤ 10 nM | 250 to 1000 nM | – | COc1nc(Nc2ccc(C3CCN(C)CC3)c(C)c2)ncc1C(=O)Nc1c(Cl)cccc1C(F)(F)F [Compound 122, N-(2-chloro-6-(trifluoromethyl)phenyl)-4-methoxy-2-((3-methyl-4-(1-methylpiperidin-4-yl)phenyl)amino)pyrimidine-5-carboxamide] |
| ≤ 100 nM | ≤ 10 nM | 250 to 1000 nM | – | C#Cc1cccc(Cl)c1NC(=O)c1cnc(Nc2ccc(C3CCN(C)CC3)c(C)c2)nc1OC [Compound 129, N-(2-chloro-6-ethynylphenyl)-4-methoxy-2-((3-methyl-4-(1-methylpiperidin-4-yl)phenyl)amino)pyrimidine-5-carboxamide] |
| ≤ 100 nM | ≤ 10 nM | ≤ 250 nM | – | COc1nc(Nc2ccc(C3CCN(C)CC3)c(C)c2)ncc1C(=O)Nc1c(Cl)ccc(O)c1Cl [Compound 133, N-(2,6-dichloro-3-hydroxyphenyl)-4-methoxy-2-((3-methyl-4-(1-methylpiperidin-4-yl)phenyl)amino)pyrimidine-5-carboxamide] |
| 100 to 500 nM | ≤ 10 nM | ≤ 250 nM | – | Cc1cc(Nc2ncc(C(=O)Nc3c(Cl)cccc3Cl)c(OC3CC3)n2)ccc1C1CCN(C)CC1 [Compound 140, 4-cyclopropoxy-N-(2,6-dichlorophenyl)-2-((3-methyl-4-(1-methylpiperidin-4-yl)phenyl)amino)pyrimidine-5-carboxamide] |
| ≤ 100 nM | ≤ 10 nM | ≤ 250 nM | – | COc1nc(Nc2ccc(C3CCN(C)CC3)c(C)c2)ncc1C(=O)Nc1c(Cl)ccc(O)c1C [Compound 141, N-(6-chloro-3-hydroxy-2-methylphenyl)-4-methoxy-2-((3-methyl-4-(1-methylpiperidin-4-yl)phenyl)amino)pyrimidine-5-carboxamide] |
| 100 to 500 nM | ≤ 10 nM | – | > 2500 nM | COc1nc(Nc2ccc(O[C@H]3CCN(C)C3)c(C)c2)ncc1C(=O)Nc1c(Cl)cccc1Cl [Compound 154, (S)—N-(2,6-dichlorophenyl)-4-methoxy-2-((3-methyl-4-((1-methylpyrrolidin-3-yl)oxy)phenyl)amino)pyrimidine-5-carboxamide] |
| – | ≤ 10 nM | – | ≤ 500 nM | COc1nc(Nc2ccc(O[C@H]3CCN(C)C3)c(C)c2)ncc1C(=O)Nc1c(Cl)ccc(O)c1C [Compound 155, (S)—N-(6-chloro-3-hydroxy-2-methylphenyl)-4-methoxy-2-((3-methyl-4-((1-methylpyrrolidin-3-yl)oxy)phenyl)amino)pyrimidine-5-carboxamide] |
| – | ≤ 10 nM | – | 500 to 1000 nM | COc1nc(Nc2ccc(C3CCN(C)CC3)c(C#N)c2)ncc1C(=O)Nc1c(Cl)cccc1Cl [Compound 156, 2-((3-cyano-4-(1-methylpiperidin-4-yl)phenyl)amino)-N-(2,6-dichlorophenyl)-4-methoxypyrimidine-5-carboxamide] |
| – | 10 to 100 nM | – | > 2500 nM | COc1nc(Nc2ccc(C3CCN(C)CC3)c(C)c2)ncc1C(=O)Nc1cc(N)ccc1C [Compound 171] |
| 100 to 500 nM | ≤ 10 nM | 250 to 1000 nM | 500 to 1000 nM | COc1nc(Nc2ccc(C3CCN(C)CC3)c(C)c2)ncc1C(=O)Nc1c(C)ccc2[nH]ncc12 [Compound 172] |
| ≤ 100 nM | ≤ 10 nM | ≤ 250 nM | ≤ 500 nM | COc1nc(Nc2ccc(C3CCNCC3)c(C)c2)ncc1C(=O)Nc1c(Cl)cccc1Cl [Compound 175] |
| 100 to 500 nM | ≤ 10 nM | ≤ 250 nM | – | COc1nc(Nc2ccc(N3CCC(N(C)C)CC3)c(C)c2)ncc1C(=O)Nc1c(Cl)cccc1Br [Compound 213] |
